In US10106542B2, “Substituted 6,7-dihydropyrazolo[1,5-a]pyrazines as negative allosteric modulators of mGluR2 receptors” (Janssen Pharmaceutica NV, priority 2013, dated 2018):
Counter-ions that a name gives are not always drawn.

Assays:
human mGlu2 receptor = target: T1, human mGlu2 receptor (Homo sapiens, UniProt Q14416); assay: [35S]GTPγS binding assay (mGluR2 negative allosteric modulation); assay type: biochemical; conditions: for IC50: membranes from CHO cells transfected with human mGlu2 receptor, glutamate 60 μM, pIC50 = −log IC50 (M), read-out: GTPγS - hmGluR2 anGT pIC50 (converted); for Emax: read-out: GTPγS - hmGluR2 anGT Emax
T1 construct: expressed in transfected cells; host or cells: CHO cells (membrane preparation)
Method: 1) [^35S]GTPγS binding assay
The [^35S]GTPγS binding assay is a functional membrane-based assay used to study G-protein coupled receptor (GPCR) function whereby incorporation of a non-hydrolysable form of GTP, [^35S]GTPγS (guanosine 5′-triphosphate, labelled with […] ^35S), is measured. The G-protein a subunit catalyzes the exchange of guanosine 5′-diphosphate (GDP) by guanosine triphosphate (GTP) and on activation of the GPCR by an agonist, [^35S]GTPγS, becomes incorporated and cannot be cleaved to continue the exchange cycle (Harper (1998) Current Protocols in Pharmacology 2.6.1-10, John Wiley & Sons, Inc.). […] Here we describe the use of the [^35S]GTPγS binding assay using membranes from cells transfected with the human mGlu2 receptor and adapted from Schaffhauser et al. (Molecular Pharmacology, 2003, […]) for the detection of the negative allosteric modulation (NAM) properties of the compounds of this invention.
CHO-cells were cultured to pre-confluence and stimulated with 5 mM butyrate for 24 h. Cells were then collected by scraping in PBS and cell suspension was centrifuged (10 min at 4000 RPM in benchtop centrifuge). Supernatant was discarded and pellet gently resuspended in 50 mM Tris-HCl, pH 7.4 by mixing with an Ultra Turrax homogenizer. The suspension was centrifuged at 12,400 RPM (Sorvall F14S-6x250Y) for 10 minutes and the supernatant discarded. The pellet was homogenized in 5 mM Tris-HCl, pH 7.4 using an Ultra Turrax homogenizer and centrifuged again (13,000 RPM, 20 min, 4° C.). The final pellet was resuspended in 50 mM Tris-HCl, pH 7.4 and stored at −80° C. in appropriate aliquots before use. Protein concentration was determined by the Bradford method (Bio-Rad, USA) with bovine serum albumin as standard.
Measurement of mGluR2 negative allosteric modulatory activity of test compounds was performed as follows. Test compounds and glutamate were diluted in assay buffer containing 10 mM HEPES acid, 10 mM HEPES salt, pH 7.4, 100 mM NaCl, 3 mM MgCl2 and 10 μM GDP. Human mGlu2 receptor-containing membranes were thawed on ice and diluted in assay buffer supplemented with 18 μg/ml saponin. […] After addition of [^35S]GTPγS (f.c. 0.1 nM), assay mixtures were shaken briefly and further incubated to allow [^35S]GTPγS incorporation on activation (30 minutes, 30° C.). Final assay mixtures contained 7 μg of membrane protein in 10 mM HEPES acid, 10 mM HEPES salt, pH 7.4, 100 mM NaCl, 3 mM MgCl2, 10 μM GDP and 10 μg/ml saponin. Total reaction volume was 200 μl. Reactions were terminated by rapid filtration through Unifilter-96 GF/B plates (Perkin Elmer, Massachusetts, USA) using a 96-well filtermate universal harvester. Filters were washed 6 times with ice-cold 10 mM NaH2PO4/10 mM Na2HPO4, pH 7.4. Filters were then air-dried, and 30 μl of liquid scintillation cocktail (Microscint-O) was added to each well. Membrane-bound radioactivity was counted in a Topcount.
The concentration-response curves of representative compounds of the present invention were generated using the Lexis software interface (developed at J&J). Data were calculated as % of the control glutamate response, defined as the response that is generated upon addition of an EC80-equivalent concentration of glutamate.

[1] = relative maximal effect: maximal % inhibition relative to the control glutamate response

T1 sequence (Q14416 19-872): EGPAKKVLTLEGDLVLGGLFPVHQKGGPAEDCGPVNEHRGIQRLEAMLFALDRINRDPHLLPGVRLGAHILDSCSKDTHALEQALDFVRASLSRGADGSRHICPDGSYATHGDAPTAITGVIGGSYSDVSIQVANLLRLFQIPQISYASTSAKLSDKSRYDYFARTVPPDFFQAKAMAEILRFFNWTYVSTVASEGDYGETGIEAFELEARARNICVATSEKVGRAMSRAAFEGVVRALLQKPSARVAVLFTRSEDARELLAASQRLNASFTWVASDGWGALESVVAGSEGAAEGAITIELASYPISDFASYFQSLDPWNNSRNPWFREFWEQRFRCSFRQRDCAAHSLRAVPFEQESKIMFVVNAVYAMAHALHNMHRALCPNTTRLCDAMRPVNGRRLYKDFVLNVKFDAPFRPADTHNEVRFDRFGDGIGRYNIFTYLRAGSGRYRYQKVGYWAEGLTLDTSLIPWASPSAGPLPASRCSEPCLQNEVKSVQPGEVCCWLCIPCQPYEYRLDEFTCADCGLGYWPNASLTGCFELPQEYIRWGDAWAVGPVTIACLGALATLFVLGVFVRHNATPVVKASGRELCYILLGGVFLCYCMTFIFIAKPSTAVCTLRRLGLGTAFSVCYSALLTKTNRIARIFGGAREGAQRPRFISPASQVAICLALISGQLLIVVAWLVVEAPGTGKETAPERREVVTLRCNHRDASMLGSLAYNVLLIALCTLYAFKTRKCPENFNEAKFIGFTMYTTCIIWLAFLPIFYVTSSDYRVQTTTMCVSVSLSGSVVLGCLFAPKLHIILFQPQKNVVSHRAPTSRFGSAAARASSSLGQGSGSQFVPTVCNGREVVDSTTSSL

SMILES	melting point	IC50 (human mGlu2 receptor)	Emax (human mGlu2 receptor; [1])	GTPγS - hmGluR2 anGT Emax (human mGlu2 receptor; [1])
CCOc1ccc(N2C[C@H](C)n3ncc(-c4ccnc(C)c4)c3C2=O)cc1Cl (as salt: HCl) [compound 17]	> 300 °C	–	–	–
COc1ccc(N2C[C@H](C)n3ncc(-c4ccnc(C)c4)c3C2=O)cc1Cl (as salt: HCl) [compound 20]	293.6 °C	–	–	–
COCc1cc(-c2cnn3c2C(=O)N(c2ccc(C(F)(F)F)cc2)C[C@@H]3C)ccn1 (as salt: HCl) [compound 22]	282.3 °C	–	–	–
COc1ccc(N2C[C@H](C)n3ncc(-c4ccnc(C)c4)c3C2=O)cc1 (as salt: HCl) [compound 38]	294 °C	–	–	–
C[C@H]1CN(c2ccc(C(F)(F)F)cc2)C(=O)c2c(-c3ccnc(N4CCCCC4)c3)cnn21 (as salt: HCl) [compound 107]	294 °C	–	–	–
CCOc1cc(-c2cnn3c2C(=O)N(c2ccc(Cl)c(Cl)c2)C[C@@H]3C)ccn1 (as salt: HCl) [compound 133]	191.5 °C	–	–	–
CC(C)Oc1cc(-c2cnn3c2C(=O)N(c2ccc(Cl)c(Cl)c2)C[C@@H]3C)ccn1 (as salt: HCl) [compound 137]	193.8 °C	–	–	–
CC(C)Oc1cc(-c2cnn3c2C(=O)N(c2ccc(C(F)(F)F)cc2)C[C@@H]3C)ccn1 (as salt: HCl) [compound 138]	173.9 °C	–	–	–
Cc1cc(-c2cnn3c2C(=O)N(c2ccc(SC(F)(F)F)cc2)C[C@@H]3C)ccn1 (as salt: HCl) [compound 236]	> 300 °C	–	–	–
CN(C)c1cc(-c2cnn3c2C(=O)N(c2ccc(Cl)c(Cl)c2)CC3CF)ccn1 (single isomer, unassigned) [compound 90]	93.7 °C	3.09e-09 M	103%	–
CN(C)c1cc(-c2cnn3c2C(=O)N(c2ccc(Cl)c(Cl)c2)CC3CF)ccn1 (single isomer, unassigned) [compound 91]	86 °C	5.62e-08 M	–	103%
Cc1cc(-c2cnn3c2C(=O)N(c2ccc(Cl)c(C)c2)C[C@@H]3C)ccn1 [compound 7]	126.7 °C	7.59e-09 M	102%	–
Cc1cc(-c2cnn3c2C(=O)N(c2ccc(F)c(C)c2)C[C@@H]3C)ccn1 [compound 21]	219.2 °C	6.17e-08 M	107%	–
Cc1cc(-c2cnn3c2C(=O)N(c2cccc(C(F)(F)F)c2)C[C@@H]3C)ccn1 [compound 23]	139.2 °C	1.1e-07 M	104%	–
Cc1cc(-c2cnn3c2C(=O)N(c2ccc(OC(F)F)cc2)C[C@@H]3C)ccn1 [compound 27]	137.1 °C	1.38e-07 M	104%	–
Cc1cc(-c2cnn3c2C(=O)N(c2ccc(C(F)(F)F)cc2)C[C@@H]3C)cnc1C [compound 29]	140.8 °C	2.29e-07 M	102%	–
Cc1cc(-c2cnn3c2C(=O)N(c2ccc(Cl)cc2F)C[C@@H]3C)ccn1 [compound 30]	78.6 °C	2.57e-07 M	104%	–
C[C@H]1CN(c2ccc(C(F)(F)F)cc2)C(=O)c2c(-c3ccc(N)nc3)cnn21 [compound 37]	254 °C	9.77e-07 M	99%	–
Cc1cc(-c2cnn3c2C(=O)N(c2ccc(C(F)(F)F)c(F)c2)CC3)ccn1 [compound 39]	185.2 °C	1.62e-06 M	100%	–

SMILES	melting point	IC50 (human mGlu2 receptor)	Emax (human mGlu2 receptor; [1])	GTPγS - hmGluR2 anGT Emax (human mGlu2 receptor; [1])
CCOc1cc(N2C[C@H](C)n3ncc(-c4cc(C)nc(C)c4)c3C2=O)ccc1C(F)(F)F [compound 49]	183.9 °C	8.71e-09 M	103%	–
C[C@H]1CN(c2ccc(C(F)(F)F)c(Cl)c2)C(=O)c2c(-c3ccncc3)cnn21 [compound 50]	146.8 °C	9.55e-09 M	103%	–
COc1cc(N2C[C@H](C)n3ncc(-c4cc(C)nc(C)c4)c3C2=O)ccc1C(F)(F)F [compound 51]	93 °C	1.1e-08 M	104%	–
Cc1cc(-c2cnn3c2C(=O)N(c2ccc(C(F)(F)F)cc2)CC3CF)ccn1 (stereo not shown) [compound 52, 7-(Fluoromethyl)-3-(2-methyl-4-pyridyl)-5-[4-(trifluoromethyl)phenyl]-6,7-dihydropyrazolo[1,5-a]pyrazin-4-one]	> 300 °C	1.05e-08 M	107%	–
Cc1cc(-c2cnn3c2C(=O)N(c2ccc(S(F)(F)(F)(F)F)cc2)C[C@@H]3C)cc(C)n1 [compound 53]	233.1 °C	9.77e-09 M	102%	–
Cc1cc(-c2cnn3c2C(=O)N(c2ccc(Cl)c(C(F)(F)F)c2)C[C@@H]3C)cc(C)n1 [compound 54]	205.1 °C	1.05e-08 M	105%	–
CCOc1cc(N2C[C@H](C)n3ncc(-c4ccncc4)c3C2=O)ccc1C(F)(F)F [compound 55]	104.2 °C	1.62e-08 M	104%	–
C[C@H]1CN(c2ccc(S(F)(F)(F)(F)F)cc2)C(=O)c2c(-c3ccncc3)cnn21 [compound 56]	199 °C	1.62e-08 M	102%	–
C[C@H]1CN(c2ccc(Cl)c(Cl)c2)C(=O)c2c(-c3ccncc3)cnn21 [compound 57]	153.2 °C	1.29e-08 M	104%	–
Cc1cc(-c2cnn3c2C(=O)N(c2ccc(C(F)(F)F)c(C#N)c2)C[C@@H]3C)cc(C)n1 [compound 59]	214.1 °C	3.55e-08 M	98%	–
C[C@H]1CN(c2ccc(C(F)(F)F)c(F)c2)C(=O)c2c(-c3ccncc3)cnn21 [compound 60]	163.8 °C	3.16e-08 M	101%	–
Cc1cc(-c2cnn3c2C(=O)N(c2ccc(C(F)(F)F)c(F)c2)C[C@@H]3C)cc(C)n1 [compound 61]	73.3 °C	2.82e-08 M	106%	–
Cc1cc(-c2cnn3c2C(=O)N(c2ccc(Cl)c(F)c2)C[C@@H]3C)ccn1 [compound 62]	141.7 °C	3.31e-08 M	105%	–
COc1cc(N2C[C@H](C)n3ncc(-c4ccncc4)c3C2=O)ccc1C(F)(F)F [compound 64]	273.9 °C	2.63e-08 M	103%	–
C[C@H]1CN(c2ccc(Cl)c(C(F)(F)F)c2)C(=O)c2c(-c3ccncc3)cnn21 [compound 68]	> 300 °C	7.08e-08 M	100%	–
C[C@H]1CN(c2ccc(C(F)(F)F)cc2)C(=O)c2c(-c3ccnc(N)c3)cnn21 [compound 71, (7S)-3-(2-Aminopyridin-4-yl)-7-methyl-5-[4-(trifluoromethyl)phenyl]-6,7-dihydropyrazolo[1,5-a]pyrazin-4(5H)-one]	218.9 °C	9.77e-08 M	103%	–
Cc1cc(-c2cnn3c2C(=O)N(c2ccc(Cl)cc2)C[C@@H]3C)cc(C)n1 [compound 72]	88 °C	1.07e-07 M	103%	–
CCCNc1cc(-c2cnn3c2C(=O)N(c2ccc(C(F)(F)F)c(Cl)c2)C[C@@H]3C)ccn1 [compound 264]	–	2.69e-09 M	108%	–
C[C@H]1CN(c2ccc(C(F)(F)F)c(Cl)c2)C(=O)c2c(-c3ccnc(CF)c3)cnn21 [compound 265]	–	5.5e-09 M	111%	–
